In the supplement of paper PMC11208160:

Assay: recombinant UMI read abundance after kanamycin selection (control-corrected) (log10(CPM+1)); higher = more efficient recombination; extreme values may be limits of the assay; sequences stand for … in AGTGCAGAGAAAATCGGCCAGTTTTCTCTGCCTGCAGTCCGCATGCCGTGGGACCCCTTGGGTTCTAACCTGTTGCCTAGATTTATGCAGCGGACTGCCTTTCTCCCAAAGTGATAAACCGG…AGGTTGGTTTCACT; site = the 11-nt donor
Summary of the method: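 After plating on IPTG (0.07 mM) plus kanamycin, or unselected, in two replicates, recombinant UMIs were PCR-amplified across the donor–target junction and sequenced. The cells were Escherichia coli co-electroporated with a UMI-tagged donor and donor-binding-loop pair library and a target plasmid with a fixed target and T7-inducible IS621 bridge recombinase. Values are log10(CPM+1), with CPM averaged over replicates and scaled by control-derived factors.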
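Note: IS621 bridge recombinase in Escherichia coli cells against a fixed T5 target plasmid.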

Sequence	recombinant UMI read abundance (log10)
CGGAATACATGGACCGGTTTTCCCGGTAATCCGTATTTGTT (site CGGAATCCTAA)	0
CGGAATACATGGACCGGTTTTCCCGGTAATCCGTATTTGTT (site CGGAATGCTAA)	0
CGGAATACATGGACCGGTTTTCCCGGTAATCCGTATTTGTT (site CGGAATTCTAA)	0
CGGAATCCATGGACCGGTTTTCCCGGTAATCCGTATTTGTG (site CGGAATCCTAA)	0
CGGAATCCATGGACCGGTTTTCCCGGTAATCCGTATTTGTG (site CGGAATCCTCA)	0.656
CGGAATCCATGGACCGGTTTTCCCGGTAATCCGTATTTGTG (site CGGAATCCTGA)	0
CGGAATCCATGGACCGGTTTTCCCGGTAATCCGTATTTGTG (site CGGAATCCTTA)	0
CGGAATCCATGGACCGGTTTTCCCGGTAATCCGTATTTGTT (site ACGAATCCTAA)	0.0109
CGGAATCCATGGACCGGTTTTCCCGGTAATCCGTATTTGTT (site AGAAATCCTAA)	0
CGGAATCCATGGACCGGTTTTCCCGGTAATCCGTATTTGTT (site AGGAAACCTAA)	0
CGGAATCCATGGACCGGTTTTCCCGGTAATCCGTATTTGTT (site AGGAATCCTAA)	0
CGGAATCCATGGACCGGTTTTCCCGGTAATCCGTATTTGTT (site AGGAATCCTAG)	0
CGGAATCCATGGACCGGTTTTCCCGGTAATCCGTATTTGTT (site AGGAATCCTTA)	0
CGGAATCCATGGACCGGTTTTCCCGGTAATCCGTATTTGTT (site AGGAATTCTAA)	0
CGGAATCCATGGACCGGTTTTCCCGGTAATCCGTATTTGTT (site AGGATTCCTAA)	0
CGGAATCCATGGACCGGTTTTCCCGGTAATCCGTATTTGTT (site AGGGATCCTAA)	0.0088
CGGAATCCATGGACCGGTTTTCCCGGTAATCCGTATTTGTT (site CAGAAGCCTAA)	0.0058
CGGAATCCATGGACCGGTTTTCCCGGTAATCCGTATTTGTT (site CAGAATACTAA)	0
CGGAATCCATGGACCGGTTTTCCCGGTAATCCGTATTTGTT (site CAGAATCCTAA)	0
CGGAATCCATGGACCGGTTTTCCCGGTAATCCGTATTTGTT (site CAGAATCCTAT)	0
CGGAATCCATGGACCGGTTTTCCCGGTAATCCGTATTTGTT (site CAGAATCCTGA)	0
CGGAATCCATGGACCGGTTTTCCCGGTAATCCGTATTTGTT (site CAGAGTCCTAA)	0.0165
CGGAATCCATGGACCGGTTTTCCCGGTAATCCGTATTTGTT (site CAGTATCCTAA)	0.0125
CGGAATCCATGGACCGGTTTTCCCGGTAATCCGTATTTGTT (site CATAATCCTAA)	0
CGGAATCCATGGACCGGTTTTCCCGGTAATCCGTATTTGTT (site CCAAATCCTAA)	0

Sequence	recombinant UMI read abundance (log10)
CGGAATCCATGGACCGGTTTTCCCGGTAATCCGTATTTGTT (site CCGAAACCTAA)	0.0076
CGGAATCCATGGACCGGTTTTCCCGGTAATCCGTATTTGTT (site CCGAATCCTAA)	0.00308
CGGAATCCATGGACCGGTTTTCCCGGTAATCCGTATTTGTT (site CCGAATCCTAG)	0
CGGAATCCATGGACCGGTTTTCCCGGTAATCCGTATTTGTT (site CCGAATCCTTA)	0
CGGAATCCATGGACCGGTTTTCCCGGTAATCCGTATTTGTT (site CCGAATTCTAA)	0
CGGAATCCATGGACCGGTTTTCCCGGTAATCCGTATTTGTT (site CCGATTCCTAA)	0.00402
CGGAATCCATGGACCGGTTTTCCCGGTAATCCGTATTTGTT (site CCGGATCCTAA)	0
CGGAATCCATGGACCGGTTTTCCCGGTAATCCGTATTTGTT (site CGAAAACCTAA)	0
CGGAATCCATGGACCGGTTTTCCCGGTAATCCGTATTTGTT (site CGAAATCCTAA)	0
CGGAATCCATGGACCGGTTTTCCCGGTAATCCGTATTTGTT (site CGAAATCCTAG)	0
CGGAATCCATGGACCGGTTTTCCCGGTAATCCGTATTTGTT (site CGAAATCCTTA)	0.014
CGGAATCCATGGACCGGTTTTCCCGGTAATCCGTATTTGTT (site CGAAATTCTAA)	0
CGGAATCCATGGACCGGTTTTCCCGGTAATCCGTATTTGTT (site CGAATTCCTAA)	0
CGGAATCCATGGACCGGTTTTCCCGGTAATCCGTATTTGTT (site CGAGATCCTAA)	0
CGGAATCCATGGACCGGTTTTCCCGGTAATCCGTATTTGTT (site CGCAACCCTAA)	0.00816
CGGAATCCATGGACCGGTTTTCCCGGTAATCCGTATTTGTT (site CGCAATCCTAA)	0.00384
CGGAATCCATGGACCGGTTTTCCCGGTAATCCGTATTTGTT (site CGCAATCCTAC)	0
CGGAATCCATGGACCGGTTTTCCCGGTAATCCGTATTTGTT (site CGCAATCCTCA)	0.00634
CGGAATCCATGGACCGGTTTTCCCGGTAATCCGTATTTGTT (site CGCAATGCTAA)	0.00802
CGGAATCCATGGACCGGTTTTCCCGGTAATCCGTATTTGTT (site CGCACTCCTAA)	0.0157
CGGAATCCATGGACCGGTTTTCCCGGTAATCCGTATTTGTT (site CGCCATCCTAA)	0
CGGAATCCATGGACCGGTTTTCCCGGTAATCCGTATTTGTT (site CGGAAACCTAA)	1.09
CGGAATCCATGGACCGGTTTTCCCGGTAATCCGTATTTGTT (site CGGAAACCTAG)	0.112
CGGAATCCATGGACCGGTTTTCCCGGTAATCCGTATTTGTT (site CGGAAACCTTA)	0
CGGAATCCATGGACCGGTTTTCCCGGTAATCCGTATTTGTT (site CGGAAATCTAA)	0

Sequence	recombinant UMI read abundance (log10)
CGGAATCCATGGACCGGTTTTCCCGGTAATCCGTATTTGTT (site CGGAACCCTAA)	0.157
CGGAATCCATGGACCGGTTTTCCCGGTAATCCGTATTTGTT (site CGGAACCCTAC)	0.00563
CGGAATCCATGGACCGGTTTTCCCGGTAATCCGTATTTGTT (site CGGAACCCTCA)	0.0146
CGGAATCCATGGACCGGTTTTCCCGGTAATCCGTATTTGTT (site CGGAACGCTAA)	0.00389
CGGAATCCATGGACCGGTTTTCCCGGTAATCCGTATTTGTT (site CGGAAGACTAA)	0
CGGAATCCATGGACCGGTTTTCCCGGTAATCCGTATTTGTT (site CGGAAGCCTAA)	0.0104
CGGAATCCATGGACCGGTTTTCCCGGTAATCCGTATTTGTT (site CGGAAGCCTAT)	0.00319
CGGAATCCATGGACCGGTTTTCCCGGTAATCCGTATTTGTT (site CGGAAGCCTGA)	0
CGGAATCCATGGACCGGTTTTCCCGGTAATCCGTATTTGTT (site CGGAATACTAA)	0
CGGAATCCATGGACCGGTTTTCCCGGTAATCCGTATTTGTT (site CGGAATACTAT)	0
CGGAATCCATGGACCGGTTTTCCCGGTAATCCGTATTTGTT (site CGGAATACTGA)	0
CGGAATCCATGGACCGGTTTTCCCGGTAATCCGTATTTGTT (site CGGAATCCTAA)	1.19
CGGAATCCATGGACCGGTTTTCCCGGTAATCCGTATTTGTT (site CGGAATCCTAC)	0
CGGAATCCATGGACCGGTTTTCCCGGTAATCCGTATTTGTT (site CGGAATCCTAG)	0
CGGAATCCATGGACCGGTTTTCCCGGTAATCCGTATTTGTT (site CGGAATCCTAT)	0
CGGAATCCATGGACCGGTTTTCCCGGTAATCCGTATTTGTT (site CGGAATCCTCA)	0.00562
CGGAATCCATGGACCGGTTTTCCCGGTAATCCGTATTTGTT (site CGGAATCCTCC)	0.00652
CGGAATCCATGGACCGGTTTTCCCGGTAATCCGTATTTGTT (site CGGAATCCTGA)	1.65
CGGAATCCATGGACCGGTTTTCCCGGTAATCCGTATTTGTT (site CGGAATCCTGT)	0
CGGAATCCATGGACCGGTTTTCCCGGTAATCCGTATTTGTT (site CGGAATCCTTA)	1.56
CGGAATCCATGGACCGGTTTTCCCGGTAATCCGTATTTGTT (site CGGAATCCTTG)	0
CGGAATCCATGGACCGGTTTTCCCGGTAATCCGTATTTGTT (site CGGAATGCTAA)	0.0054
CGGAATCCATGGACCGGTTTTCCCGGTAATCCGTATTTGTT (site CGGAATGCTAC)	0
CGGAATCCATGGACCGGTTTTCCCGGTAATCCGTATTTGTT (site CGGAATGCTCA)	0
CGGAATCCATGGACCGGTTTTCCCGGTAATCCGTATTTGTT (site CGGAATTCTAA)	0
